Measurements from patent publication US20100035756A1, “TRIAZOLOPHYRIDINE DERIVATIVES AS HERBICIDES” (SYNGENTA LIMITED, priority 2006, published 2010).

Tests used:
[1] = test system: Monocotyledonous and dicotyledonous test plants; assay: Herbicidal action prior to emergence of the plants (pre-emergence action), Example B1; assay type: in vivo; conditions: preemergence application, 250 g/ha, evaluated after 4 weeks, 100%=total damage, 0%=no damage
Protocol: (§1) Monocotyledonous and dicotyledonous test plants are sown in seed trays in standard soil. Immediately after sowing, the test compounds are applied by spraying in the form of an aqueous suspension (prepared from a wettable powder (Example F3, b) according to WO 97/34485) or in the form of an emulsion (prepared from an emulsifiable concentrate (Example F1, c) according to WO 97/34485) in a concentration of 250 g/ha. The test plants are then grown in a greenhouse under optimum conditions. After a 4-week test period, the test is evaluated (100%=total damage to plant; 0%=no damage to plant; NC not evaluated).

[2] = test system: Monocotyledonous and dicotyledonous test plants; assay: Herbicidal action after emergence of the plants (post-emergence herbicidal action), Example B2; assay type: in vivo; conditions: postemergent application, 125 g/ha, 2- to 3-leaf stage, evaluated after 2-3 weeks, 100%=total damage
Protocol: as §1, with “When the test plants are at the 2- to 3-leaf stage,” for “Immediately after sowing,”, “125” for “250”, “grown on” for “grown”, “2- to 3-week” for “4-week”, “plant).” for “plant; NC not evaluated).”

Structure (SMILES) | herbicidal damage, ABUTH [1] [%] | herbicidal damage, AMARE [1] [%] | herbicidal damage, BRAPL [1] [%] | herbicidal damage, DIGSA [1] [%] | herbicidal damage, ECHCG [1] [%] | herbicidal damage, SETFA [1] [%] | herbicidal damage, STEME [1] [%] | herbicidal damage, VERPE [1] [%] | herbicidal damage, ABUTH [2] [%] | herbicidal damage, AMARE [2] [%] | herbicidal damage, CHEAL [2] [%] | herbicidal damage, DIGSA [2] [%] | herbicidal damage, SETFA [2] [%] | herbicidal damage, SINAR [2] [%] | herbicidal damage, VERPE [2] [%] | herbicidal damage, XANST [2] [%]
O=C(C1=C(O)C2CCC(C2)C1=O)c1ccc(C(F)(F)F)n2ncnc12 (stereo not shown) [2.1] | 100 | 100 | 100 | 100 | 90 | 90 | 70 | 40 | – | – | – | – | – | – | – | –
O=C(C1=C(O)C2CCC(C2)C1=O)c1ccc(C(F)(F)F)n2nc(Cl)nc12 (stereo not shown) [2.2] | 50 | 70 | 50 | 50 | 70 | 10 | 0 | 60 | 40 | 80 | 80 | 90 | 80 | 70 | 70 | 60
Cc1nc2c(C(=O)C3=C(O)C4CCC(C4)C3=O)ccc(C(F)(F)F)n2n1 (stereo not shown) [2.4] | 70 | 60 | 10 | 30 | – | 20 | 60 | 10 | 80 | 80 | 80 | 70 | 70 | 80 | 30 | 80
CC(C)c1nc2c(C(=O)C3=C(O)C4CCC(C4)C3=O)ccc(C(F)(F)F)n2n1 (stereo not shown) [2.7] | 30 | 20 | 0 | 0 | 10 | 0 | 20 | 50 | 70 | – | 70 | 20 | 20 | 60 | 10 | 70
O=C(C1=C(O)C2CCC(C2)C1=O)c1ccc(C(F)(F)F)n2nc(-c3ccc(Cl)cc3)nc12 (stereo not shown) [2.35] | 0 | 0 | 50 | 20 | 0 | 0 | 50 | 0 | – | – | – | – | – | – | – | –
CCOc1nc2c(C(=O)C3=C(O)C4CCC(C4)C3=O)ccc(C(F)(F)F)n2n1 (stereo not shown) [2.209] | 100 | 100 | 90 | 80 | 70 | 80 | 70 | 30 | 80 | 90 | 80 | 80 | 80 | 80 | 80 | 80
Cc1nc2c(C(=O)C3=C(O)C(C)(C)C(=O)C(C)(C)C3=O)ccc(C(F)(F)F)n2n1 [13.3] | 100 | 90 | 80 | 80 | 30 | 70 | 100 | 100 | 80 | 70 | 50 | 60 | 70 | 80 | 70 | 80
O=C(C1=C(O)C2CCC(C2)C1=O)c1ccc(C(F)(F)F)n2c(-c3ccc(Cl)cc3)nnc12 (stereo not shown) [Compound 1.35] | 50 | 100 | 100 | 100 | 0 | 30 | 70 | 40 | – | – | – | – | – | – | – | –
O=C1CCCC(O)=C1C(=O)c1ccc(C(F)(F)F)n2cnnc12 [Compound 3.1] | 100 | 100 | 40 | 100 | 10 | 0 | 70 | 60 | – | – | – | – | – | – | – | –
O=C1CCCC(O)=C1C(=O)c1ccc(C(F)(F)F)n2c(Cl)nnc12 [Compound 3.2] | 100 | 100 | 0 | 80 | 70 | 0 | 100 | 100 | – | – | – | – | – | – | – | –
O=C1CCCC(O)=C1C(=O)c1ccc(C(F)(F)F)n2c(OC(F)F)nnc12 [Compound 3.12] | 50 | 100 | 60 | 10 | 0 | 0 | 0 | – | – | – | – | – | – | – | – | –
O=C1CCCC(O)=C1C(=O)c1ccc(C(F)(F)F)n2c(-c3cccnc3)nnc12 [Compound 3.15] | 10 | 0 | 30 | 30 | 30 | 30 | 60 | 30 | – | – | – | – | – | – | – | –
CC1(C)C(=O)C(C(=O)c2ccc(C(F)(F)F)n3cnnc23)=C(O)C(C)(C)C1=O [Compound 5.1] | 100 | 100 | 100 | 100 | 90 | 40 | 100 | 80 | – | – | – | – | – | – | – | –
CC1(C)C(=O)C(C(=O)c2ccc(C(F)(F)F)n3c(Br)nnc23)=C(O)C(C)(C)C1=O [Compound 5.2] | – | – | – | – | – | – | – | – | 90 | 80 | 100 | 70 | 80 | 90 | 90 | 70
Cc1nc2c(C(=O)C3=C(O)CCCC3=O)ccc(C(F)(F)F)n2n1 [Compound 11.3] | 70 | 40 | 50 | 30 | 0 | 10 | 40 | 40 | – | – | – | – | – | – | – | –
